For assay [1], the system named is PIBF1 expression by human peripheral blood B cells. Nature of the assay: PIBF1 expression by purified human peripheral blood IgD+ B cells after stimulation (qRT-PCR, Western Blot). It is filed as cell-based. The following applies: 2 days (3 days in FIG. 4A), 100 ng/ml cytokine, 1 ng/ml TGF-β, 1 μM progesterone, vs medium control. The method, then: Placentas and the attached chorioamniotic membranes were obtained after delivery. In each case, several random strips of the chorioamniotic membranes located at different regions of the choriodecidua were embedded in rolls in optimal cutting temperature (OCT) compound (Sakura Finetek 4583), frozen in liquid nitrogen and stored at −80° C. for immunofluorescence analysis. Choriodecidual tissues were scraped from the chorionic membranes that had blood clots removed, and digested with 0.2% (w/v) Clostridium histolyticum Collagenase V (Sigma-Aldrich C9263) in RPMI-1640 with 10% fetal bovine serum (Thermo Fisher Scientific 26140-079) at 37° C. with gentle agitation for 45 minutes. Cells released from the tissues were cleaned by being passed through a 100 μm cell strainer and centrifuged on a Ficoll gradient. Peripheral blood leukocytes of anonymous healthy donors after leukophoresis were obtained from the Southeast Michigan branch of American Red Cross. Peripheral blood mononuclear cells (PBMCs) were isolated using Histopaque-1077 (Sigma-Aldrich 10771) following the manufacturer's instruction. Red blood cells were lysed using an ammonium-chloride-potassium (ACK) lysing buffer (Thermo Fisher Scientific A1049201). IgD+B cells were purified from PBMCs by magnetic-activated cell sorting (MACS) with a biotinylated goat F(ab′)2 anti-human IgD antibody and anti-biotin magnetic microbeads (Miltenyi Biotec) as described in Chen, K., et al., Nat Immunol 10, 889-898 (2009). The purity of the IgD+B cells ranged from 92% to 99% as determined by flow cytometry with CDI9 staining. CD19+ B cells were similarly separated from PBMCs using a biotinylated mouse anti-human CD19 (clone HIB19) antibody, with purity ranging from 93% to 97% as determined by flow cytometry using a different clone (SJ25C1) of CD19 antibody.
Human PMBCs, IgD+B cells, CD19+ B cells or PBMCs depleted of CD19+ B cells were cultured in RPMI-1640 medium (Sigma-Aldrich R8578) supplemented with 2 mM L-glutamine, 2 mg/ml NaHCO3, 100 U/ml penicillin, 100 µg/ml streptomycin, […] amphotericin B and 10% FBS. Cells were stimulated with 100 ng/ml IL-33 (R&D 3625-IL-010 or Peprotech 200-33), 1 μM progesterone (Sigma-Aldrich P0130), IL-4 (Peprotech 200-04), IL-10 (Peprotech 200-10), IL-17A (Peprotech 200-17), IL-25 (R&D 1258-IL-025), IFN-γ (Peprotech 300-02), TGF-β (R&D 240-B-010/CF), TNF (210-TA-020) or TSLP (Peprotech 300-62). RNA or protein expression was analyzed after 2 days.
RNA was extracted from cells or tissues using TRIzol (Thermo Fisher Scientific 15596026). cDNA synthesis was performed using the Superscript III first strand synthesis system (Thermo Fisher Scientific 188080051) in a thermocycler (Bio-Rad T100). qRT-PCR was performed with Power SYBR Green PCR Master Mix (Thermo Fisher Scientific 4367660) in a StepOnePlus instrument (Applied Biosystems) using pairs of sense and anti-sense primers targeted at the genes of interest (Tables 2, 3).
Cells were pelleted and washed twice with cold PBS and lysed in a pH 8.0 protein extraction buffer containing 20 mM Tris-HCl, 150 mM NaCl, 1% IGEPAL CA-630 (Sigma-Aldrich 18896), 0.1% sodium dodecyl sulfate (SDS), 1 mM EDTA and protease and phosphatase inhibitor cocktail on ice for 30 minutes. For protein extraction from mouse uterus and human chorioamniotic membranes, the tissue was washed twice with PBS to remove blood and homogenized in the above protein extraction buffer with a tissue tearor (Biospec Products 985370), followed by 3 rounds of sonication at 30% maximum power for 5 seconds per round using a sonifier (Thermo Fisher Scientific Q500). Supernatants were collected after centrifugation, heated at 98° C. in an SDS buffer with 4% β-mecaptoethanol for 5 minutes to denature proteins. Proteins were resolved in 4-20% Bis-Tris gels (GenScript M42012) and transferred to 0.45 μm nitrocellulose membranes (Bio-Rad 1620115). […]
A general note: Quantitative PCR measures a nucleic acid by following its amplification.

The subject of assay [2] is pregnant female μMT mice (LPS-induced PTL). Description: LPS-induced preterm labor in pregnant μMT mice: preterm delivery and neonatal/fetal mortality. It is filed as in vivo, mouse. The following applies: read on gd 17.5, fPIBF1 1 μg (800 ng in method), cPIBF1 300 ng, vs PBS; for rate of preterm delivery (PTL): protein intravenous on gd 16.5 three hours before 5 μg intraperitoneal LPS. The method, then: Six to ten-week old virgin female C57BL/6 (WT) or μMT mice were mated with male Balb/c mice. Female mice were examined daily in the early morning for the presence of a vaginal plug, which denoted gestational day (gd) 0.5. In the late morning of gd 16.5, pregnant female mice were intraperitoneally administered with 200 μl sterile PBS or 200 μl sterile PBS containing 0.5, 2.5, 5, 10 or 20 μg lipopolysaccharides (LPS) from Salmonella enterica serotype typhimurium (Sigma-Aldrich L6143). The various doses of LPS were given to the mice randomly. In some experiments, splenic B cells of 5 to 8-week old virgin female WT or IL-10−/− mice were purified using a mouse resting B cell negative isolation kit (Miltenyi Biotec 130-090-862) to 94% to 99% purity as determined by CD19 staining. 107 purified B cells were adoptively transferred in 200 μl sterile PBS into pregnant female μMT mice on gd 14.5 prior to LPS administration on gd 16.5. In some other experiments, 200 μl sterile PBS or 200 μl sterile PBS containing 800 ng recombinant full-length PIBF1 (fPIBF1) (aa 1-757 (SEQ ID NO:11, with an N-terminal glutathione-S-transferase (GST) tag of 232 amino acids, Abnova H00010464-P01) or 300 ng of a recombinant C-terminal fragment of PIBF1 (cPIBF1) (aa 660-755 (SEQ ID NO:12), with an N-terminal glutathione-S-transferase (GST) tag of 232 amino acids, Abnova H00010464-Q01) was intravenously administered to pregnant female μMT mice on gd 16.5 three hours prior to intraperitoneal LPS administration. 24 hours after LPS administration, female mice were examined for delivery and death of delivered pups if delivery occurred. They were then sacrificed for the examination of neonatal/fetal mortality, which was calculated as the total number of dead delivered pups and dead fetuses divided by the total number of implantation sites. Uteri were collected, briefly washed in PBS and processed for RNA and protein extraction or flow cytometry. The people performing the analysis were not blinded to the genotype or treatment of the mice.
The sample size was calculated based on the effect size derived from preliminary data at 5% significance level and 80% power using the software G*Power 3.1. Sample availability exceeded the estimated sample size. Results are expressed as mean±S.E.M. Percentage data were subjected to square root transformation prior to statistical analysis to verify test assumptions of equal variance. Statistical difference in the rate of PTL between different strains of mice or different treatment groups was assessed by Fisher's exact test. Statistical difference in neonatal/fetal mortality was assessed by Mann-Whitney U test. For flow cytometry and qRT-PCR data, Shapiro-Wilk test was used to determine the normality of the data. Statistical significance was assessed by Student's t-test for normally distributed data and Mann-Whitney U test for non-normally distributed data. p values <0.05 were considered statistically significant.

“Also recorded” adds a separate entry of the source.

On to “TSLP: T helper type 2 cytokine, Peprotech 300-62 [reference compound]”, for which the “PIBF1 expression by human peripheral blood B cells (PIBF1 transcript fold change, Western Blot)” value in assay [1] is “only IL-33 induced PIBF1 expression; also recorded: do not induce”.

As for “TGF-β: cytokine, R&D 240-B-010/CF [reference compound]”, the “PIBF1 expression by human peripheral blood B cells (PIBF1 transcript fold change, Western Blot)” value in assay [1] is listed as “had no effect; also recorded: do not induce”.

For the molecule `CC(=O)[C@H]1CC[C@H]2[C@@H]3CCC4=CC(=O)CC[C@]4(C)[C@H]3CC[C@]12C` [progesterone, reference compound], the “PIBF1 expression by human peripheral blood B cells (PIBF1 transcript fold change, Western Blot)” value in assay [1] is given as “known inducer of PIBF1”.

As to “cPIBF1: recombinant C-terminal fragment of PIBF1, aa 660-755, SEQ ID NO:12, N-terminal GST tag, Abnova H00010464-Q01”, the neonatal/fetal mortality entry in assay [2] (protein intravenous on gd 16.5 before 5 μg intraperitoneal LPS) is on record as “neither mitigated”. Moreover, the “rate of preterm delivery (PTL)” value in assay [2] is recorded as “neither mitigated”; in assay [2] (listed as C-terminal fragment of PIBF1), “does not protect”.

B1: IL-4: T helper type 2 cytokine, Peprotech 200-04 (protein, UniProt P05112 25-153, looked up)
Interleukin-4: HKCDITLQEIIKTLNSLTEQKTLCTELTVTDIFAASKNTTEKETFCRAATVLRQFYSHHEKDTRCLGATAQQFHRHKQLIRFLKRLDRNLWGLAGLNSCPVKEANQSTLENFLERLKTIMREKYSKCSS
As to B1, the “PIBF1 expression by human peripheral blood B cells (PIBF1 transcript fold change, Western Blot)” value in assay [1] is reported as “only IL-33 induced PIBF1 expression; also recorded: do not induce”.

B2: IFN-γ: cytokine, Peprotech 300-02 (protein, UniProt P01579 24-161, looked up)
Interferon gamma: QDPYVKEAENLKKYFNAGHSDVADNGTLFLGILKNWKEESDRKIMQSQIVSFYFKLFKNFKDDQSIQKSVETIKEDMNVKFFNSNKKKRDDFEKLTNYSVTDLNVQRKAIHELIQVMAELSPAAKTGKRKRSQMLFRG
For the molecule B2, the “PIBF1 expression by human peripheral blood B cells (PIBF1 transcript fold change, Western Blot)” value in assay [1] is “had no effect; also recorded: do not induce”.

B3: IL-10: cytokine, Peprotech 200-10 (protein, UniProt P22301 19-178, looked up)
Interleukin-10: SPGQGTQSENSCTHFPGNLPNMLRDLRDAFSRVKTFFQMKDQLDNLLLKESLLEDFKGYLGCQALSEMIQFYLEEVMPQAENQDPDIKAHVNSLGENLKTLRLRLRRCHRFLPCENKSKAVEQVKNAFNKLQEKGIYKAMSEFDIFINYIEAYMTMKIRN
With B3, the “PIBF1 expression by human peripheral blood B cells (PIBF1 transcript fold change, Western Blot)” value in assay [1] is listed as “had no effect; also recorded: do not induce”.

B4: IL-33: interleukin 33 cytokine (R&D 3625-IL-010 or Peprotech 200-33); human IL-33 is SEQ ID NO: 5 (protein, listed as Homo sapiens)
chain: MKPKMKYSTNKISTAKWKNTASKALCFKLGKSQQKAKEVCPMYFMKLRSGLMIKKEACYFRRETTKRPSLKTGRKHKRHLVLAACQQQSTVECFAFGISGVQKYTRALHDSSITGISPITEYLASLSTYNDQSITFALEDESYEIYVEDLKKDEKKDKVLLSYYESQHPSNESGDGVDGKMLMVTLSPTKDFWLHANNKEHSVELHKCEKPLPDQAFFVLHNMHSNCVSFECKTDPGVFIGVKDNHLALIKVDSSENLCTENILFKLSET
Turning to B4, the “PIBF1 expression by human peripheral blood B cells (PIBF1 transcript fold change, Western Blot)” value in assay [1] is on record as “promoted PIBF1 expression”.

B5: IL-25: T helper type 2 cytokine, R&D 1258-IL-025 (protein, UniProt Q9H293 33-177, looked up)
Interleukin-25: YSHWPSCCPSKGQDTSEELLRWSTVPVPPLEPARPNRHPESCRASEDGPLNSRAISPWRYELDRDLNRLPQDLYHARCLCPHCVSLQTGSHMDPRGNSELLYHNQTVFYRRPCHGEKGTHKGYCLERRLYRVSLACVCVRPRVMG
Take B5: the “PIBF1 expression by human peripheral blood B cells (PIBF1 transcript fold change, Western Blot)” value in assay [1] was “only IL-33 induced PIBF1 expression; also recorded: do not induce”.

These data come from US10391148B2, “Method of prevention and inhibition of preterm labor” (Wayne State University, priority 2016, dated 2019).
